# From patent publication US20080269213A1, “8-Hydroxyquinoline compounds and methods thereof” (Wyeth, priority 2006, published 2008)
# Like-named read-outs stand apart in the source and are kept apart here.
# Assays:
# Agg-1 = biological target: T1, Agg-1 (Homo sapiens, UniProt O75173); assay: Agg-1 FRET assay; type: biochemical; conditions: for IC50: read-out: Agg1 IC50; for inhibition at 22 µM: @ 22000 nM
# T1 sequence (O75173 213-837): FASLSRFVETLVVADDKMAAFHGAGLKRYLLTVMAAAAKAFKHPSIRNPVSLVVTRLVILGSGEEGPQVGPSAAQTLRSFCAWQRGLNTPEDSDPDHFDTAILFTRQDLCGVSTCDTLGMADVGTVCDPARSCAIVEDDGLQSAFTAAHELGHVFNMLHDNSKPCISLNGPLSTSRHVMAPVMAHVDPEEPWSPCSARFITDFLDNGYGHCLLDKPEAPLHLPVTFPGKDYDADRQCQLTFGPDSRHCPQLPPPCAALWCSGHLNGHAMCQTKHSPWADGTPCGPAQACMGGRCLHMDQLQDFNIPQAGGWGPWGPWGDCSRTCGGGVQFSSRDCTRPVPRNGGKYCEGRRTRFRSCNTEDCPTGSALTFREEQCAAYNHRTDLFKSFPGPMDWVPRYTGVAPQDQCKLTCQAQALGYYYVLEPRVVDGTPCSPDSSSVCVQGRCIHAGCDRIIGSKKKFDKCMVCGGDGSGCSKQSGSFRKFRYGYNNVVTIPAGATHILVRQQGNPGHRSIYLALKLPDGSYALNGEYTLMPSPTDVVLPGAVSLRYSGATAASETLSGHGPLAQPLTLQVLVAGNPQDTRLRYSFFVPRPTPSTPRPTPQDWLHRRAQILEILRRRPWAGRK
# Source text: The Agg-1/Agg-2 FRET data for N-[(8-hydroxyquinolin-2-yl)(phenyl)methyl]-2-phenoxyacetamide and 2-{[(phenoxyacetyl)amino](phenyl)methyl}quinolin-8-yl phenoxyacetate is presented in Table 1.
# [1] = biological target: T2, recombinant human Aggrecanase-2 Agg2-Phe628 (Homo sapiens, UniProt Q9UNA0); assay: Aggrecanase 2 in vitro enzyme assay (Agg-2 FRET, quenched fluorescent peptide substrate); type: biochemical; design: purified recombinant human Aggrecanase-2 Agg2-Phe628 (MW=41,737); This is a truncated form of full-length human aggrecanase-2; made in house; host or cells: CHO cells; conditions: for Agg-2 FRET Median PCT INHIB: concentration not given
# T2 sequence (Q9UNA0 262-628 limits assumed): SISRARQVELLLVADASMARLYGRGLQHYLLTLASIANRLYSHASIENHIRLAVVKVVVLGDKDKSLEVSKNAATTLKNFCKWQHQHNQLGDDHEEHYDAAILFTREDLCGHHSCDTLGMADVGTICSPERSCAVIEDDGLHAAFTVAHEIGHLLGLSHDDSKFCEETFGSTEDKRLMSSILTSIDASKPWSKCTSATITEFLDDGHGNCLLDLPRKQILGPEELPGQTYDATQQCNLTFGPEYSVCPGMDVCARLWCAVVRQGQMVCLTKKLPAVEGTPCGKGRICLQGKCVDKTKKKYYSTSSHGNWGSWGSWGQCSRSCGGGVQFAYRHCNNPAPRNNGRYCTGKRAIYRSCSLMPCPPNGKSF
# Method in brief: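 Continuous FRET assay with purified truncated human Aggrecanase-2 Agg2-Phe628 (CHO-expressed, 0.5 μg/ml final) and brevican-derived Abz/Dnp peptide (25 μM final) in 50 mM HEPES pH 7.5, 100 mM NaCl, 5 mM CaCl2, 0.1% CHAPS, 5% glycerol. Enzyme preincubated with compound before substrate; fluorescence (ex 340/em 420 nm) followed kinetically 40 min at 30 °C.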
# [2] = read-out: Agg-2 FRET Median IC50
Structure (SMILES),IC50 (Agg-1),IC50 ([1]; read-out: Agg2 IC50),"IC50 [1, 2]",also measured
Cc1ccc(C(NC(=O)COc2ccccc2)c2cc(Cl)c3cccnc3c2O)o1 (centres unmarked) [N-[(5-chloro-8-hydroxyquinolin-7-yl)(5-methyl-2-furyl)methyl]-2-phenoxyacetamide],> 22 µM,2320 nM,2320 nM,–
O=C(COc1ccccc1)NC(c1ccc(-c2ccccc2)o1)c1cc(Cl)c2cccnc2c1O (centres unmarked) [N-[(5-chloro-8-hydroxyquinolin-7-yl)(5-phenyl-2-furyl)methyl]-2-phenoxyacetamide],> 22 µM,> 5000 nM,–,Agg-2 FRET Median PCT INHIB [1]: 54%
O=C(COc1ccccc1)NC(c1cc(Cl)c2cccnc2c1O)c1cc2ccccc2c2ccccc12 (centres unmarked) [N-[(5-chloro-8-hydroxyquinolin-7-yl)(9-phenanthryl)methyl]-2-phenoxyacetamide],–,–,–,"inhibition at 33 µM (Agg-1; @ 33000 nM, read-out: Agg1 %): 54%; inhibition at 11 µM ([1]; @ 11000 nM): 51%"
O=C(COc1ccccc1)NC(C1=CCCCC1)c1cc(Cl)c2cccnc2c1O (centres unmarked) [N-[(5-chloro-8-hydroxyquinolin-7-yl)(cyclohex-1-en-1-yl)methyl]-2-phenoxyacetamide],1 to 8 µM,–,–,inhibition at […] ([1]; @ 1900 nM): 42%
O=C(CN1CCC(c2ccccc2)CC1)NC(c1ccccc1)c1cc(Cl)c2cccnc2c1O (centres unmarked) [N-[(5-chloro-8-hydroxyquinolin-7-yl)(phenyl)methyl]-2-(4-phenylpiperidin-1-yl)acetamide],~11 µM,~3700 nM,–,Agg-2 FRET Median PCT INHIB [1]: 57%
O=C(Cc1ccccc1)NC(c1ccccc1)c1cc(Cl)c2cccnc2c1O (centres unmarked) [N-[(5-chloro-8-hydroxyquinolin-7-yl)(phenyl)methyl]-2-phenylacetamide],–,2530 nM,2530 nM,"inhibition at […] (Agg-1; @ 1200 nM, read-out: Agg1 %): 20%"
O=C(COc1ccccc1)NC(c1cc(Cl)c2cccnc2c1O)c1ccnc2ccccc12 (centres unmarked) [N-[(5-chloro-8-hydroxyquinolin-7-yl)(quinolin-4-yl)methyl]-2-phenoxyacetamide],–,–,–,"inhibition at 11 µM (Agg-1; @ 11000 nM, read-out: Agg1 %): 34%; inhibition at 2.8 µM ([1]; @ 2800 nM): 45%"
O=C(COc1ccccc1)NC(c1cc(Cl)c2cccnc2c1O)c1cccc2cccnc12 (centres unmarked) [N-[(5-chloro-8-hydroxyquinolin-7-yl)(quinolin-8-yl)methyl]-2-phenoxyacetamide],–,2200 nM,–,inhibition at 22 µM (Agg-1; read-out: Agg1 %): 55%
"O=C(COc1ccccc1)NC(c1cc2c(cc1Cl)OCO2)c1cc(Cl)c2cccnc2c1O (centres unmarked) [N-[(6-chloro-1,3-benzodioxol-5-yl)(5-chloro-8-hydroxyquinolin-7-yl)methyl]-2-phenoxyacetamide]",> 30 µM,1370 nM,1370 nM,–
O=C(COc1ccccc1)NC(c1ccccc1)c1cc(N2CCCC2)c2cccnc2c1O (centres unmarked) [N-[(8-hydroxy-5-pyrrolidin-1-ylquinolin-7-yl)(phenyl)methyl]-2-phenoxyacetamide],–,10500 nM,10500 nM,"inhibition at 22.2 µM (Agg-1; @ 22200 nM, read-out: Agg1 %): 49%"

# Now from value to compound, other results behind:
IC50 (Agg-1),IC50 ([1]; read-out: Agg2 IC50),"IC50 [1, 2]",Structure (SMILES),also measured
4.7 µM,–,–,O=C(COc1ccccc1)NC(c1ccc(-c2ccncc2)cc1)c1cc(Cl)c2cccnc2c1O (centres unmarked) [N-[(5-chloro-8-hydroxyquinolin-7-yl)(4-pyridin-4-ylphenyl)methyl]-2-phenoxyacetamide],inhibition at 0.8 µM ([1]; @ 800 nM): 48%
–,1200 nM,–,Cc1ccc2occ(C(NC(=O)COc3ccccc3)c3cc(Cl)c4cccnc4c3O)c(=O)c2c1 (centres unmarked) [N-[(5-chloro-8-hydroxyquinolin-7-yl)(6-methyl-4-oxo-4H-chromen-3-yl)methyl]-2-phenoxyacetamide],"inhibition at 7.4 µM (Agg-1; @ 7400 nM, read-out: Agg1 %): 43%"
–,1800 nM,–,"COc1cc(OCC(=O)NC(c2ccccc2)c2cc(Cl)c3cccnc3c2O)cc(OC)c1OC (centres unmarked) [N-[(5-chloro-8-hydroxyquinolin-7-yl)(phenyl)methyl]-2-(3,4,5-trimethoxyphenoxy)acetamide]","inhibition at 7.5 µM (Agg-1; @ 7500 nM, read-out: Agg1 %): 54%"
–,3500 nM,3520 nM,O=C(COc1ccccc1)NC(c1cc(Cl)c2cccnc2c1O)c1cccc2ncccc12 (centres unmarked) [N-[(5-chloro-8-hydroxyquinolin-7-yl)(quinolin-5-yl)methyl]-2-phenoxyacetamide],inhibition at 22 µM (Agg-1; read-out: Agg1 %): 46%
